Data reported in ChEMBL document CHEMBL1201862, “PubChem BioAssay data set” (2004).
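Assay format: 96-well plates, 48-hour exposure. GI50: concentration for 50% inhibition of growth.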 Active and inactive are the calls of the source. Rule as the data show it: active = GI50 up to about 1.1 µM and inactive = higher.

Legend:
Assay in all cases: growth of human tumour cells (NCI), 48 h
TK-10 = test system: TK-10
DLD-1 = test system: DLD-1
RXF 393 = test system: RXF 393
ACHN = test system: ACHN
CCRF-CEM = test system: CCRF-CEM
SK-OV-3 = test system: SK-OV-3
M14 = test system: M14
K562 = test system: K562
EKVX = test system: EKVX
UACC-257 = test system: UACC-257
LOX IMVI = test system: LOX IMVI
SF-295 = test system: SF-295
OVCAR-5 = test system: OVCAR-5
SK-MEL-28 = test system: SK-MEL-28
OVCAR-8 = test system: OVCAR-8
HOP-62 = test system: HOP-62

Measured: GI50

COC(=O)C(=O)C(C(=O)C(=O)Nc1cccc(C(C)=O)c1)c1nc2ccccc2nc1O (stereo unspecified)
inactive: TK-10 > 100 µM | DLD-1 > 100 µM | RXF 393 > 100 µM | ACHN > 100 µM | CCRF-CEM > 100 µM | SK-OV-3 > 100 µM | M14 > 100 µM | K562 > 100 µM | EKVX 48.3 µM | UACC-257 > 100 µM | LOX IMVI > 100 µM | SF-295 > 100 µM | OVCAR-5 > 100 µM | SK-MEL-28 > 100 µM

CC(=O)NNc1nc(C)c(C(/C=C/c2ccc(Cl)cc2)=N\N=C(N)N)s1
inactive: TK-10 > 100 µM | DLD-1 > 100 µM | RXF 393 > 100 µM | ACHN > 100 µM | OVCAR-8 > 100 µM | CCRF-CEM > 100 µM | SK-OV-3 > 100 µM | M14 82.6 µM | K562 > 100 µM | HOP-62 > 100 µM | UACC-257 > 100 µM | LOX IMVI > 100 µM | SF-295 > 100 µM | OVCAR-5 > 100 µM | SK-MEL-28 > 100 µM

Cc1ccc(S(=O)(=O)N/N=C/c2oc(-c3ccccc3Cl)c(-c3ccccc3Cl)c2[N+](=O)[O-])cc1
inactive: TK-10 59 µM | DLD-1 17.1 µM | RXF 393 13.8 µM | ACHN 13.9 µM | OVCAR-8 22.3 µM | CCRF-CEM 7.24 µM | SK-OV-3 45 µM | M14 31 µM | K562 12.9 µM | HOP-62 17.6 µM | EKVX 31.5 µM | UACC-257 37.2 µM | SF-295 > 100 µM | OVCAR-5 17.5 µM | SK-MEL-28 22.9 µM

CCN(CC)CC(=O)NC1c2ccccc2Oc2c(C)cccc21 (stereo unspecified)
inactive: TK-10 > 100 µM | DLD-1 81.3 µM | RXF 393 38.7 µM | ACHN 32.9 µM | OVCAR-8 > 100 µM | CCRF-CEM > 100 µM | SK-OV-3 > 100 µM | M14 > 100 µM | K562 53.1 µM | HOP-62 > 100 µM | EKVX > 100 µM | UACC-257 > 100 µM | LOX IMVI > 100 µM | OVCAR-5 > 100 µM | SK-MEL-28 > 100 µM

O=CC1=CCC2c3[nH]c4ccccc4c3CCN2C1 (stereo unspecified)
inactive: TK-10 259 µM | DLD-1 85.5 µM | RXF 393 182 µM | ACHN 219 µM | OVCAR-8 139 µM | CCRF-CEM 107 µM | SK-OV-3 132 µM | K562 130 µM | HOP-62 > 39.6 µM | EKVX > 396 µM | UACC-257 98.9 µM | LOX IMVI 58.7 µM | SF-295 106 µM | OVCAR-5 > 396 µM | SK-MEL-28 90.6 µM

COc1cc2cc3c4c(cc(OC)c(OC)c4c2cc1OC)CCN3
inactive: TK-10 74.5 µM | DLD-1 26.1 µM | RXF 393 25.1 µM | ACHN 32.5 µM | OVCAR-8 76.4 µM | CCRF-CEM 26.5 µM | SK-OV-3 > 100 µM | M14 32.9 µM | K562 27.9 µM | HOP-62 > 100 µM | EKVX 6.53 µM | UACC-257 58.6 µM | LOX IMVI 28.6 µM | SF-295 37 µM | SK-MEL-28 69.8 µM

CN(C)C(=S)OC(Cn1cncn1)c1ccc(Cl)cc1Cl (stereo unspecified)
inactive: TK-10 > 100 µM | DLD-1 > 100 µM | RXF 393 > 100 µM | ACHN > 100 µM | OVCAR-8 > 100 µM | SK-OV-3 > 100 µM | M14 > 100 µM | K562 > 100 µM | HOP-62 > 100 µM | EKVX > 100 µM | UACC-257 > 100 µM | LOX IMVI > 100 µM | SF-295 > 100 µM | OVCAR-5 > 100 µM | SK-MEL-28 > 100 µM

CC#CC(=O)Nc1ccccc1CC(c1c[nH]c2ccccc12)c1c[nH]c2ccccc12
inactive: TK-10 29.9 µM | DLD-1 16.6 µM | RXF 393 7.13 µM | OVCAR-8 19.1 µM | CCRF-CEM 11.3 µM | SK-OV-3 18.8 µM | M14 15 µM | K562 16.1 µM | HOP-62 20 µM | EKVX 14.6 µM | UACC-257 21.5 µM | LOX IMVI 15.2 µM | SF-295 20.3 µM | SK-MEL-28 15.7 µM

COC(=O)CC(C(C(C)=O)C(=O)OCc1ccccc1)N1C(=O)OCC1c1ccccc1 (stereo unspecified)
inactive: TK-10 > 100 µM | DLD-1 47.2 µM | RXF 393 > 100 µM | ACHN > 100 µM | OVCAR-8 > 100 µM | CCRF-CEM > 100 µM | M14 > 100 µM | K562 > 100 µM | HOP-62 > 100 µM | EKVX > 100 µM | UACC-257 93.5 µM | LOX IMVI > 100 µM | SF-295 > 100 µM | SK-MEL-28 > 100 µM

CC([C@H]1CCC2C3CCC4CC5(CC[C@]4(C)C3CC[C@@]21C)c1ccccc1C(=O)N5C)N(C)C (stereo partly specified)
inactive: TK-10 26.1 µM | DLD-1 36.5 µM | RXF 393 33 µM | ACHN 44.9 µM | OVCAR-8 39.8 µM | CCRF-CEM 44.4 µM | SK-OV-3 > 100 µM | M14 13.9 µM | K562 15.7 µM | HOP-62 31.3 µM | LOX IMVI 1.65 µM | SF-295 18.7 µM | OVCAR-5 29 µM | SK-MEL-28 17.6 µM
